These results are taken from PMC10096180, “Half-Sandwich Type Platinum-Group Metal Complexes of C-Glucosaminyl Azines: Synthesis and Antineoplastic and Antimicrobial Activities” (Molecules, 2023).

Like-named read-outs stand apart in the source and are kept apart here.

Series [1] is described as follows: Distribution coefficient (logD), n-octanol-PBS. It counts as physicochemical. The conditions noted are these: n-octanol-PBS (pH = 7.4) system. On the procedure:
The logD values of the newly synthesized complexes were determined according to a procedure described in our previous publications. page 64: Ir-7b +1.17 Rh-7b +1.41 Ru-7c +1.31 Os-7c +1.59 Ir-7c +1.40 Rh-7c +1.13 Ru-7d +1.26 Os-7d +1.42 Ir-7d +1.30 Rh-7d +1.04 Ru-7e +2.22 Os-7e +2.21 Ir-7e +1.39 Rh-7e +1.66 *logD was determined in an n-octanol-PBS (pH = 7.4) system 64 (14 pictures or pasted objects on this page, not shown here)

The subject of series [2] is A2780 cells. Briefly: MTT reduction assay, early toxicity, 4 h treatment. It counts as cell-based. The conditions noted are these: inhibition at maximum concentration (100 μM) where no plateau, ND = not detectable; for inhibition at 100 µM: Homo sapiens, read-out: A2780 MTT Max Inhibition. As for the experimental part:
(§1) The complexes described above are intended to replace registered platinum complexes. Platinum complexes constitute the core of the chemotherapy regimen used in ovarian cancer; therefore, we used a cellular model of ovarian cancer, A2780, and primary human dermal fibroblasts as models of non-transformed cells (controls). For the characterization of the complexes, we used an MTT assay after 4 h of treatment for the detection of early toxicity and an SRB assay 48 h after treatment for the detection of cytostasis.
An MTT reduction assay was measures the activity of mitochondrial complex I and can be used to detect toxicity. The assay was performed in a manner similar to that described in [84]. Briefly, cells were plated in 96-well plates the day before the assay. Cells were treated with the compounds for 4 h; then, MTT was added to a 0.5 mg/mL final concentration, and cells were incubated at 37 °C in a cell incubator for 40–60 min as a function of the cell line being assessed. Culture medium was removed, the reduced MTT dye was dissolved in dimethyl-sulfoxide, and plates were measured in a plate photometer (Thermo Scientific Multiscan GO spectrophotometer, Waltham, MA, USA) at 540 nm. On each plate, wells were designed to contain vehicle-treated cells. In calculations, the readings for these wells were considered to 1, and all readings were expressed relative to these values.
(§2) Statistical analysis was performed using version 8.0.1 of GraphPad Prism. Values were tested for normal distribution using the Shapiro–Wilk normality test. Nonlinear regression was performed using the built-in “[Inhibitor] vs. response—Variable slope (four parameters), least square fit” utility of GraphPad, which yielded IC50 and Hill slope values if the sigmoid curves reached a plateau of inhibition and there was no decrease between two subsequent data points or when inhibition was over 90%. In other cases, the percentage of inhibition was taken for the maximum concentration (100 μM).

Series [3] has as its system A2780 cells. Briefly: SRB binding assay, cytostasis, 48 h treatment. The conditions noted are these: up to 100 μM, ND = not detectable. It counts as cell-based. On the procedure: as §1
An SRB assay measures protein content of cells in correlation with the cell number in an assay well and can therefore be used to assess cell proliferation or long-term cytostasis. Cells were seeded in 96-well plates the day before the assay. Cells were treated with the compounds for 48 h. Then medium was removed, and cells were fixed with 10% trichloroacetic acid. Fixed cells were washed in distilled water 3 times, followed by staining with SRB (0.4 m/V% dissolved in 1% acetic acid) for 10 min. Stained cells were washed in 1% acetic acid 5 times; acetic acid was removed, and cells were left to dry. Protein-bound SRB was released by adding 100 μL 10 mM Tris base. Plates were measured in a plate photometer (Thermo Scientific Multiscan GO spectrophotometer, Waltham, MA, USA) at 540 nm. On each plate, wells were designed to contain vehicle-treated cells. In calculations, the readings for these wells were considered to be 1, and all readings were expressed relative to these values.
as §2
Background: Sulforhodamine B stains cellular protein and so reports cell mass.

For series [4], the system named is Enterococcus faecalis (ATCC29212). Kind of series: Broth microdilution MIC, reference strain. It counts as cell-based. The conditions noted are these: Enterococcus faecalis, 24 h, tested range 0.08–40 μM, read-out: MIC E. faecalis ATCC 29,212. On the procedure:
(§3) The reference strains of Staphylococcus aureus (ATCC29213) and Enterococcus faecalis (ATCC29212) were purchased from the ATCC (Manassas, VA, USA).
(§4) Microdilution experiments were performed according to the standards of EUCAST [85]. The bacterial isolates to be tested were grown on Mueller–Hinton agar plates. The inoculum density of bacteria was set at 5.0 × 10^5 CFU/mL in microtiter plates in a final volume of 200 μL Mueller–Hinton broth. The tested concentration range was 0.08–40 μM (10 concentrations, twofold serial dilutions), and a drug-free growth control and an inoculum-free negative control were included. The inoculated plates were incubated for 24 h at 37 °C, then visually assessed. Minimum inhibitory concentration (MIC) was defined as the lowest concentration with a 50%≤ inhibitory effect compared to the growth control. All experiments were performed at least twice in duplicate.
(In general: Dilution methods test growth across graded concentrations, often in twofold steps.)

The test system of series [5] is Staphylococcus aureus (ATCC29213). Kind of series: Broth microdilution MIC, reference strain. It counts as cell-based. The conditions noted are these: Staphylococcus aureus, ATCC29213, 24 h, 0.08–40 μM, read-out: MIC S. aureus ATCC 29213. As for the experimental part: as §3, §4
In series [6] the test system is methicillin-resistant Staphylococcus aureus (MRSA) clinical isolates. Kind of series: Broth microdilution MIC, clinical MRSA isolates. Particulars: Staphylococcus aureus, 24 h, 0.08–40 μM. It counts as cell-based. As for the experimental part: (§5) We used a set of clinical isolates of S. aureus and E. faecium that were collected at the Medical Center of the University of Debrecen (Hungary) between 1 January 2018. and 31 December 2020. The clinical isolates were identified using a Microflex MALDI-TOF mass spectrometer (Bruker, Billerica, MA, USA). The antibiotic susceptibility of the isolates was tested following the European Committee on Antimicrobial Susceptibility Testing (EUCAST) guidelines, which were valid at the time of collection.
as §4

Series [7] deals with vancomycin-resistant Enterococcus (VRE) clinical isolates. Kind of series: Broth microdilution MIC, clinical VRE isolates. Particulars: Enterococcus, 24 h, 0.08–40 μM. It counts as cell-based, E. faecium. As for the experimental part: as §5, §4
Where [8] appears, read: clinical isolate 20,426 MRSA, read-out: MIC 20,426 MRSA.
[9] abbreviates: clinical isolate 24,035 MRSA, read-out: MIC 24,035 MRSA.
Setting [10] is: clinical isolate 24,268 MRSA, read-out: MIC 24,268 MRSA.
[11] abbreviates: clinical isolate 24,272 MRSA, read-out: MIC 24,272 MRSA.
[12] abbreviates: clinical isolate 24,328 MRSA, read-out: MIC 24,328 MRSA.
Where [13] appears, read: clinical isolate 24,408 MRSA, read-out: MIC 24,408 MRSA.
Setting [14] is: clinical isolate 25,051 VRE, read-out: MIC 25,051 VRE.
Where [15] appears, read: clinical isolate 25,498 VRE, read-out: MIC 25,498 VRE.
The mark [16] stands for this setting: clinical isolate 27,085 VRE, read-out: MIC 27,085 VRE.

For `Cc1c(C)c(C)[c-](C)c1C.F[P-](F)(F)(F)(F)F.N[C@@H]1[C@@H](OC(=O)c2ccccc2)[C@H](OC(=O)c2ccccc2)[C@@H](COC(=O)c2ccccc2)O[C@H]1c1cnccn1.[Cl][Rh+2]` [Rh-7d], in series [1], the logD was found to be 1.04. In addition, in series [2], the “A2780 MTT Max Inhibition” value amounted to 18.08%. The “A2780 SRB Max Inhibition” value in series [3] amounted to 64.76%.
As for `Cc1ccc(C(C)C)cc1.F[P-](F)(F)(F)(F)F.N[C@@H]1[C@@H](O)[C@H](O)[C@@H](CO)O[C@H]1c1ccccn1.[Cl][Ru+]` [Ru-5a], the logD in series [1] is on record as −1.91. Also, the “A2780 MTT Max Inhibition” value in series [2] is reported as “did not exhibit any biological activity”. In addition, the “A2780 SRB Max Inhibition” value in series [3] is “did not exhibit any biological activity”.
In the case of `Cc1c(C)c(C)[c-](C)c1C.F[P-](F)(F)(F)(F)F.N[C@@H]1[C@@H](OC(=O)c2ccccc2)[C@H](OC(=O)c2ccccc2)[C@@H](COC(=O)c2ccccc2)O[C@H]1c1cnccn1.[Cl][Ir+2]` [Ir-7d], in series [1], the logD is 1.30. Also, in series [2], the “A2780 MTT Max Inhibition” value is reported as 38.71%. Besides, in series [3], the “A2780 SRB Max Inhibition” value is on record as 80.44%.
`Cc1ccc(C(C)C)cc1.F[P-](F)(F)(F)(F)F.N[C@@H]1[C@@H](OC(=O)c2ccccc2)[C@H](OC(=O)c2ccccc2)[C@@H](COC(=O)c2ccccc2)O[C@H]1c1cnccn1.[Cl][Os+]` [Os-7d] displayed a logD in series [1] of 1.42. The “A2780 MTT Max Inhibition” value in series [2] stood at 46.72%. In addition, in series [3], the “A2780 SRB Max Inhibition” value came out at 80.44%.
`N[C@@H]1[C@@H](O)[C@H](O)[C@@H](CO)O[C@H]1c1ccccn1` [Complex 5a, 2-(2′-Amino-2′-deoxy-β-D-glucopyranosyl)pyridine]: in series [2], the “A2780 MTT Max Inhibition” value is given as “did not exhibit any biological activity”. In addition, the “A2780 SRB Max Inhibition” value in series [3] is given as “did not exhibit any biological activity”.
`N[C@@H]1[C@@H](OCc2ccccc2)[C@H](OCc2ccccc2)[C@@H](COCc2ccccc2)O[C@H]1c1cnccn1` [Complex 3d, 2-(2′-Amino-2′-deoxy-3′,4′,6′-tri-O-benzyl-β-D-glucopyranosyl)pyrazine]: the MIC in series [4], in series [5], in series [6] (setting [8]), in series [6] (setting [9]), in series [6] (setting [10]) and in series [6] (setting [11]) was > 40 µM in each case. In addition, the MIC in series [6] (setting [12]), in series [6] (setting [13]), in series [7] (setting [14]), in series [7] (setting [15]) and in series [7] (setting [16]) was > 40 µM each time. In addition, the “A2780 MTT Max Inhibition” value in series [2] is reported as “no activity”.
With `N[C@@H]1[C@@H](OC(=O)c2ccccc2)[C@H](OC(=O)c2ccccc2)[C@@H](COC(=O)c2ccccc2)O[C@H]1c1ccc2ccccc2n1` [Complex 7e, 2-(2′-Amino-2′-deoxy-3′,4′,6′-tri-O-benzoyl-β-D-glucopyranosyl)quinoline], the MIC in series [4], in series [5], in series [6] (setting [8]), in series [6] (setting [9]), in series [6] (setting [10]) and in series [6] (setting [11]) was > 40 µM throughout. Also, the MIC in series [6] (setting [12]), in series [6] (setting [13]), in series [7] (setting [14]), in series [7] (setting [15]) and in series [7] (setting [16]) was > 40 µM throughout. For the same compound, in series [2], the inhibition at 100 µM was 13.6%. Also, the “A2780 SRB Max Inhibition” value in series [3] came out at 45.20%.
For `Cc1ccc(C(C)C)cc1.F[P-](F)(F)(F)(F)F.N[C@@H]1[C@@H](OC(=O)c2ccccc2)[C@H](OC(=O)c2ccccc2)[C@@H](COC(=O)c2ccccc2)O[C@H]1c1cnccn1.[Cl][Ru+]` [Ru-7d], the logD in series [1] was 1.26. Also, the “A2780 MTT Max Inhibition” value in series [2] is recorded as 64.04%. The “A2780 SRB Max Inhibition” value in series [3] stood at 80.44%.
`N[C@@H]1[C@@H](OC(=O)c2ccccc2)[C@H](OC(=O)c2ccccc2)[C@@H](COC(=O)c2ccccc2)O[C@H]1c1ncccn1` [Complex 7c, 2-(2′-Amino-2′-deoxy-3′,4′,6′-tri-O-benzoyl-β-D-glucopyranosyl)pyrimidine]: the inhibition at 100 µM in series [2] worked out at 26.3%. Also, the “A2780 SRB Max Inhibition” value in series [3] amounted to 79.53%.
As to `N[C@@H]1[C@@H](OC(=O)c2ccccc2)[C@H](OC(=O)c2ccccc2)[C@@H](COC(=O)c2ccccc2)O[C@H]1c1cnccn1` [Complex 7d, 2-(2′-Amino-2′-deoxy-3′,4′,6′-tri-O-benzoyl-β-D-glucopyranosyl)pyrazine], in series [2], the inhibition at 100 µM came out at 18.1%. Besides, in series [3], the “A2780 SRB Max Inhibition” value is 73.37%.

What is called logD is lipophilicity at a set pH, counting ionised and neutral species. Higher therefore signals higher lipophilicity. A word on the MIC: it is the smallest concentration in the dilution series that meets the test's criterion for growth inhibition. A word on the inhibition: it is the relative decrease from the control value, in per cent.
